Data published in ChEMBL document CHEMBL1201862, “PubChem BioAssay data set” (2004).
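A five-concentration, 48-hour dose response in 96-well plates underlies each endpoint, interpolated linearly between surrounding concentrations. GI50 = concentration required for 50% inhibition of growth.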 The source made the active and inactive calls. Cut-off read from the data, not from the text of the source: active = GI50 up to about 1.1 µM and inactive = higher.

What was measured:
Assay in all cases: growth of human tumour cells (NCI), 48 h
CCRF-CEM = system: CCRF-CEM
HCT-15 = system: HCT-15
NCI/ADR-RES = system: NCI/ADR-RES
SF-268 = system: SF-268
SW-620 = system: SW-620
Malme-3M = system: Malme-3M
KM12 = system: KM12
PC-3 = system: PC-3
786-0 = system: 786-0
MOLT-4 = system: MOLT-4
MCF7 = system: MCF7
SNB-19 = system: SNB-19
HOP-62 = system: HOP-62
UO-31 = system: UO-31
UACC-62 = system: UACC-62
NCI-H522 = system: NCI-H522
TK-10 = system: TK-10
NCI-H23 = system: NCI-H23
Hs-578T = system: Hs-578T
DU-145 = system: DU-145

SMILES | GI50 (CCRF-CEM) | GI50 (HCT-15) | GI50 (NCI/ADR-RES) | GI50 (SF-268) | GI50 (SW-620) | GI50 (Malme-3M) | GI50 (KM12) | GI50 (PC-3) | GI50 (786-0) | GI50 (MOLT-4) | GI50 (MCF7) | GI50 (SNB-19) | GI50 (HOP-62) | GI50 (UO-31) | GI50 (UACC-62) | GI50 (NCI-H522) | GI50 (TK-10) | GI50 (NCI-H23) | GI50 (Hs-578T) | GI50 (DU-145)
C=CC1(c2ccc(-c3ccccc3)cc2)OCCO1 | 11.9 µM (inactive) | 29.5 µM | 65.6 µM (inactive) | > 100 µM (inactive) | 31.2 µM (inactive) | 42.8 µM (inactive) | 41.2 µM (inactive) | 35 µM (inactive) | 46.8 µM (inactive) | 40.6 µM (inactive) | 54.6 µM (inactive) | 25.8 µM (inactive) | > 100 µM (inactive) | > 100 µM (inactive) | 26.1 µM (inactive) | 42 µM (inactive) | 89.1 µM (inactive) | 34.7 µM (inactive) | 23.4 µM (inactive) | > 100 µM (inactive)
N[C@@H]1CCN(c2c(F)cc3c(=O)c(C(=O)O)cn4c3c2Oc2cc3c(ccc5ccccc53)cc2-4)C1 | 0.0482 µM (active) | 1.69 µM | > 79.3 µM (inactive) |  | 1.41 µM (inactive) | 5.27 µM (inactive) | 5.32 µM (inactive) | 2.34 µM (inactive) | 1.55 µM (inactive) | 0.515 µM (active) | 3.13 µM (inactive) | 3.3 µM (inactive) | 4.82 µM (inactive) | 5.2 µM (inactive) | 7.6 µM (inactive) | 3.85 µM (inactive) | 1.45 µM (inactive) | 3.06 µM (inactive) | 15.9 µM (inactive) | 3.28 µM (inactive)
C[C@@H]1CC[C@@]2(C)[C@H](C)/C(=C\COC(=O)/C=C/c3ccc(O)c(O)c3)CC[C@@]12C [NAVICULYL CAFFEATE] | 1.11 µM (active) | 4.1 µM | 7.8 µM (inactive) | 9.84 µM (inactive) | 4.95 µM (inactive) | 14 µM (inactive) | 3.95 µM (inactive) | 4.71 µM (inactive) | 4.37 µM (inactive) | 2.26 µM (inactive) | 2.83 µM (inactive) | 11.5 µM (inactive) | 13.1 µM (inactive) | 8.73 µM (inactive) | 10.3 µM (inactive) | 1.28 µM (inactive) | 3.5 µM (inactive) | 9.23 µM (inactive) | 13.2 µM (inactive) | 8.02 µM (inactive)
C=CC1ON(Cc2ccccc2)CCc2cc(OC)c(OC)cc21 (centres undefined) | 45.7 µM (inactive) | 48.2 µM | 45.5 µM (inactive) | 46.6 µM (inactive) | 44.9 µM (inactive) | 19.2 µM (inactive) | 27 µM (inactive) | 48.9 µM (inactive) | > 100 µM (inactive) | 34.7 µM (inactive) | > 100 µM (inactive) | > 100 µM (inactive) | 85.5 µM (inactive) | 25.5 µM (inactive) | 56.1 µM (inactive) | 41.5 µM (inactive) | > 100 µM (inactive) | 53.3 µM (inactive) | > 100 µM (inactive) | > 100 µM (inactive)
CC1(O)CC(C(F)(F)F)(C(F)(F)F)OC1=O (centres undefined) | > 10 µM (inactive) | > 10 µM | > 10 µM (inactive) | > 10 µM (inactive) | > 10 µM (inactive) | > 10 µM (inactive) | > 10 µM (inactive) | > 10 µM (inactive) | > 10 µM (inactive) | > 10 µM (inactive) | > 10 µM (inactive) | > 10 µM (inactive) | > 10 µM (inactive) | > 10 µM (inactive) | > 10 µM (inactive) | > 10 µM (inactive) | > 10 µM (inactive) | > 10 µM (inactive) | > 10 µM (inactive) | > 10 µM (inactive)
O=C1C=CC(=O)c2c1ccc1c3ccccc3n(Cc3cccc([N+](=O)[O-])c3)c21 | 8.36 µM (inactive) | 21.5 µM | 37.8 µM (inactive) | 39.6 µM (inactive) | 11.5 µM (inactive) | 19.5 µM (inactive) | > 100 µM (inactive) | 30.1 µM (inactive) | 22.8 µM (inactive) | 8.65 µM (inactive) | 22.3 µM (inactive) | > 100 µM (inactive) | > 100 µM (inactive) | 50 µM (inactive) | > 46 µM (inactive) | 18.8 µM (inactive) | 20 µM (inactive) | 21.7 µM (inactive) | > 71.9 µM (inactive) | > 100 µM (inactive)
O=C1C=CC(=O)c2cc(Sc3ccccc3)c(=O)ccc21 | 1.76 µM (inactive) | 13.5 µM | 22 µM (inactive) | 22 µM (inactive) | 3.83 µM (inactive) | 12.7 µM (inactive) | 18.1 µM (inactive) | 18.2 µM (inactive) | 14.8 µM (inactive) | 2.24 µM (inactive) | 5.83 µM (inactive) | 19.3 µM (inactive) | 28.6 µM (inactive) | 11.7 µM (inactive) | 15.5 µM (inactive) | 2.32 µM (inactive) | 17.1 µM (inactive) | 19.2 µM (inactive) | 27.4 µM (inactive) | 17.4 µM (inactive)
O=S1(=O)OCCCOS(=O)(=O)C1(Br)Br | > 100 µM (inactive) | > 100 µM | > 100 µM (inactive) | > 100 µM (inactive) | > 100 µM (inactive) | > 100 µM (inactive) | > 100 µM (inactive) | > 100 µM (inactive) | > 100 µM (inactive) | > 100 µM (inactive) | > 100 µM (inactive) | > 100 µM (inactive) | 0.743 µM (active) | > 100 µM (inactive) | > 100 µM (inactive) | > 100 µM (inactive) | > 100 µM (inactive) | > 100 µM (inactive) | 62.2 µM (inactive) | > 100 µM (inactive)
COc1cc(C2c3cc4c(cc3OC3(OC)COC(=O)C23)OCO4)cc(OC)c1OC(C)=O (centres undefined) | 2.24 µM (inactive) | 0.798 µM | 0.323 µM (active) | 6.75 µM (inactive) | 0.552 µM (active) | > 100 µM (inactive) | 0.881 µM (active) | 0.429 µM (active) | 1.21 µM (inactive) | 3.96 µM (inactive) | 1.07 µM (active) | 5.94 µM (inactive) | 0.8 µM (active) | 6.28 µM (inactive) | 4.78 µM (inactive) | 0.263 µM (active) | 19.3 µM (inactive) | 3.27 µM (inactive) | 0.54 µM (active) | 2.52 µM (inactive)
CC1C2Cc3ccc(O)cc3C1(C)CCN2C (centres undefined) | > 100 µM (inactive) | > 100 µM | > 100 µM (inactive) | > 100 µM (inactive) | > 100 µM (inactive) | > 100 µM (inactive) | > 100 µM (inactive) | > 100 µM (inactive) | > 100 µM (inactive) | > 100 µM (inactive) | > 100 µM (inactive) | > 100 µM (inactive) | > 100 µM (inactive) | > 100 µM (inactive) | > 100 µM (inactive) | > 100 µM (inactive) | > 100 µM (inactive) | > 100 µM (inactive) | > 100 µM (inactive) | > 100 µM (inactive)
